Read-outs that look alike come from different tables or passages of the source.
Legend:
[1] = test system: Necrotic Enteritis strain of C. perfringens; type: cell-based, Clostridium perfringens
[2] = test system: clinical isolate of C. difficile; assay: In vitro MIC and MBC against Clostridium difficile (Example 6); type: cell-based
[3] = in vivo; cited from earlier work
[4] = in vivo
[5] = test system: E. coli causing scour; assay: In vitro MIC against pig disease strains (Example 5); type: cell-based; details: all 5 strains of E. coli causing scour
[6] = test system: Eimeria species (mainly E. acervulina)
[7] = cited from earlier work
[8] = test system: Clostridium Perfringens (type A strain EHE-NE36) after Eimeria oocyst challenge; details: NE challenged broilers; for median lesion scores: relative to nil-treatment; for small intestinal lesion scores: relative to nil treatment
[9] = Feed palatability, feed and water consumption and bird productivity study (Example 2); type: in vivo, broiler chickens; details: treated birds, in-water days 6-42
From the text: A follow-up study to determine the feed palatability, feed and water consumption and bird productivity following incorporation of a single formulation of IRP001 hemisulfate salt (unmasked) when offered to broiler chickens in-feed or in-water. The study explores the optimal treatment regime in terms of treatment start date.
Phase 1: On receipt, two hundred and seventy (270) day-old commercial broiler chickens were allocated sequentially as they are received into sixteen (16) individual floor pens, each of 16 or 17 birds, on Day 0.
Phase 2: On receipt, the ninety (90) day-old commercial broiler chickens were allocated sequentially as they are received into four (4) individual floor pens, each of 22 or 23 birds, on Day 22.
Feed intake, water intake, weight gain and mortality were used as outcome parameters.
Individual daily feed intake and individual daily water intake data by pen and then by treatment group were calculated for Phases 1 and 2 (and for the entire trial for the birds in Group/Pen 2, 15 and 16 that continue through both Phases) using figures for total feed and water provided each day to each pen divided by the number of birds in each pen. Where errors in weighing, feeding/watering or recording (or other unexplained losses of feed and water) had occurred means were adjusted by using the mean value for the same pen on the 1-2 days either side of the apparent error. Similarly, group mean bodyweights were calculated for Phase 1 using total weight/total no. birds for Day 0 and individual weights from Days 7, 14, 21, 28, 35 and 42. Total (individual) feed consumed was calculated per treatment and feed conversion ratios per treatment calculated using the expression: total (individual) feed/total (individual) weight gain.
Individual daily feed intake and individual daily water intake were statistically compared by treatment within each phase and between Pens 2 and 15/16 over both phases using a linear model:—
and Tibco SPOTFIRE S+ 8.2 (2010). ‘Day’ was included in the model to allow for changes over time, ‘Pen’ as each treatment consisted of 2 pens while an interaction term ‘Treatment:Day’ was included to allow for treatment×time effects. Model suitability was confirmed by inspection of residual plots; in all instances the statistical model was appropriate.

With `COc1ccc2cc3[n+](cc2c1OC)CCc1cc2c(cc1-3)OCO2` [IRP001, berberine] the MIC ([1]; C. perfringens NE strain, Berberine sulfate (purity 98.0%) as test agent) was 125 µg/mL, the inhibition of growth ([1]; C. perfringens, at 62.5 µg/ml) was “partial inhibition of growth” and the MIC ([2]; Clostridioides difficile, C. difficile clinical isolate, Berberine sulfate as test agent, variation between replicates, read-out: MIC) was 500 to 1000 µg/mL. The MBC ([2]; Clostridioides difficile, against CD (C. difficile)) was 880 to 1000 µg/mL, the MIC ([2]; Clostridioides difficile, against CD (C. difficile), read-out: MIC) was 640 to 820 µg/mL and the carcinogenicity finding [3] was “potential carcinogenicity”. The “adverse reactions / unanticipated events” value [4] was “no adverse reaction or unanticipated event”.

With `CN[C@H](CC(C)C)C(=O)N[C@H]1C(=O)N[C@@H](CC(N)=O)C(=O)N[C@H]2C(=O)N[C@H]3C(=O)N[C@H](C(=O)N[C@H](C(=O)O)c4cc(O)cc(O)c4-c4cc3ccc4O)[C@H](O)c3ccc(c(Cl)c3)Oc3cc2cc(c3O[C@@H]2O[C@H](CO)[C@@H](O)[C@H](O)[C@H]2O[C@H]2C[C@](C)(N)[C@H](O)[C@H](C)O2)Oc2ccc(cc2Cl)[C@H]1O` [Vancomycin, reference compound] the MIC [1] was “within the expected range” and the MIC [2] was “within the expected range”.

Work on `COc1cc2c(cc1OC)-c1cc3ccc(OC)c(OC)c3c[n+]1CC2` [palmatine] yielded an MIC [5] of 125 µg/mL.

In the case of `CC[C@@H](C(=O)[C@@H](C)[C@@H](O)[C@H](C)[C@@H]1O[C@@H]([C@@H](CC)C(=O)O)CC[C@@H]1C)[C@H]1O[C@]2(C=C[C@@H](O)[C@]3(CC[C@@](C)([C@H]4CC[C@](O)(CC)[C@H](C)O4)O3)O2)[C@H](C)C[C@@H]1C` [salinomycin, Salinomycin, reference compound], the “Intestinal health score: Ballooning (total gut)” value ([6]; 21 days) is reported as 0.10, the “Intestinal health score: Contents lower intestine” value ([6]; 21 days) is reported as 0.45 and the “Intestinal health score: Contents upper intestine” value ([6]; 21 days) is reported as 0.65. For the same compound, the “Intestinal health score: Hyperaemia lower intestine” value ([6]; 21 days) was 0.00, the “Intestinal health score: Hyperaemia upper intestine” value ([6]; 21 days) was 0.15 and the “Intestinal health score: Tonus lower intestine” value ([6]; 21 days) was 0.50. The “Intestinal health score: Tonus upper intestine” value ([6]; 21 days) was 0.50, the “Intestinal health score: Total Intestine (maximum 10)” value ([6]; 21 days) was 3.55 and the “Intestinal health score: Translucency lower intestine” value ([6]; 21 days) was 0.85. For the same compound, the “Intestinal health score: Translucency upper intestine” value ([6]; 21 days) was 0.20^B, the “Intestinal health score: Undigested particles in (rectum)” value ([6]; 21 days) was 0.15^B and the “Intestinal health score: Ballooning (total gut)” value ([6]; 28 days) was 0.80. For the same compound, the “Intestinal health score: Contents lower intestine” value ([6]; 28 days) was 0.00, the “Intestinal health score: Contents upper intestine” value ([6]; 28 days) was 1.00 and the “Intestinal health score: Hyperaemia lower intestine” value ([6]; 28 days) was 0.20. For the same compound, the “Intestinal health score: Hyperaemia upper intestine” value ([6]; 28 days) was 0.80, the “Intestinal health score: Tonus lower intestine” value ([6]; 28 days) was 0.60 and the “Intestinal health score: Tonus upper intestine” value ([6]; 28 days) was 0.80. The “Intestinal health score: Total Intestine (maximum 10)” value ([6]; 28 days) was 5.20, the “Intestinal health score: Translucency lower intestine” value ([6]; 28 days) was 0.20 and the “Intestinal health score: Translucency upper intestine” value ([6]; 28 days) was 0.40. The “Intestinal health score: Undigested particles in (rectum)” value ([6]; 28 days) was 0.40, the “FCR 0-14 corrected for mortality” value ([6]; in vivo) was 1.113 and the “FCR 0-21 corrected for mortality” value ([6]; in vivo) was 1.238. For the same compound, the “FCR 0-28 corrected for mortality” value ([6]; in vivo) was 1.470, the “FCR 0-42 corrected for mortality” value ([6]; in vivo) was 1.546^BC and the “Faecal oocyst count, Mean” value ([6]; in vivo) was 72,046 Oocyst/g. For the same compound, the “Feed per bird over days 0-14” value ([6]; in vivo) was 497^AB g/bird, the “Feed per bird over days 0-21” value ([6]; in vivo) was 1193^B g/bird and the “Feed per bird over days 0-28” value ([6]; in vivo) was 2074 g/bird. The “Feed per bird over days 0-42” value ([6]; in vivo) was 4298 g/bird, the “Mean Coccidiosis Lesion Score (maximum 4) Caeca” value ([6]; in vivo) was 0.00 and the “Mean Coccidiosis Lesion Score (maximum 4) Duodenum” value ([6]; in vivo) was 1.35^ABC. For the same compound, the “Mean Coccidiosis Lesion Score (maximum 4) Ileum” value ([6]; in vivo) was 0.00, the “Mean Coccidiosis Lesion Score (maximum 4) Jejunum” value ([6]; in vivo) was 0.40^B and the “Mean Coccidiosis Lesion Score Total” value ([6]; in vivo) was 1.75^B. For the same compound, the “Mean Weight Gain over days 0-7” value ([6]; in vivo) was 116 gm, the “Mean Weight Gain over days 8-14” value ([6]; in vivo) was 330^BC gm and the “Mean Weight Gain over days 15-21” value ([6]; in vivo) was 517^A gm. The “Mean Weight Gain over days 22-28” value ([6]; in vivo) was 645 gm, the “Mean Weight Gain over days 29-42” value ([6]; in vivo) was 1384 gm and the “Mean live weight at 0 days” value ([6]; in vivo) was 41 gm. The “Mean live weight at 7 days” value ([6]; in vivo) was 157 gm, the “Mean live weight at 14 days” value ([6]; in vivo) was 446^B gm and the “Mean live weight at 21 days” value ([6]; in vivo) was 963^AB gm. The “Mean live weight at 28 days” value ([6]; in vivo) was 1608^A gm, the “Mean live weight at 42 days” value ([6]; in vivo) was 2991^A gm and the growth rate ([6]; in vivo) was “statistically similar to the control group”.

In the case of berberine hemisulfate [IRP001 sulfate], the solubility ([7]; ethanol) is given as “slightly soluble”, the solubility ([7]; water) is given as “about 30 parts water” and the median lesion scores ([8]; 0.1 g/L in-water) is given as “no reduction in median lesion scores”. For the same compound, the “Mortalities prior to autopsy” value ([8]; 0.1 g/L in-water, vs nil-treatment) was “not significantly different”, the median lesion scores ([8]; 0.2 g/kg in-feed) was “no reduction in median lesion scores” and the “Mortalities prior to autopsy” value ([8]; 0.2 g/kg in-feed, vs nil-treatment) was “not significantly different”. The “small intestinal lesion scores” value ([8]; 1.0 g/L in-water) was “substantial reduction in small intestinal lesion scores”, the “Mortalities prior to autopsy” value ([8]; 1.0 g/L in-water, relative to nil-treatment and low-dose groups) was “significant reduction in mortalities” and the “small intestinal lesion scores” value ([8]; 2.0 g/kg in-feed) was “substantial reduction in small intestinal lesion scores”. The “Mortalities prior to autopsy” value ([8]; 2.0 g/kg in-feed, relative to nil-treatment and low-dose groups) was “significant reduction in mortalities”, the “FCR (feed conversion ratio)” value [9] was 1.6 kg feed: 1 kg gain and the weight gained [9] was 2.35 kg.
